molecular target: T1, KRAS G12C 1-169, his-tagged protein, GDP-loaded (Homo sapiens, UniProt P01116, G12C); assay: Biochemical assay: covalent modification of KRAS G12C measured by mass spectrometry (RapidFire/TOF or Q-Exactive); assay type: binding; conditions: tested at 32 μM; further: time not given here
T1 construct: KRAS G12C 1-169, his-tagged protein, GDP-loaded
How it was run: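 GDP-loaded KRAS G12C 1-169 (his-tagged, 2 μM or 0.5 μM in 20 mM Hepes, 150 mM NaCl, 1 mM MgCl2) reacted with compound at 32 μM or 8 μM final, then quenched with formic acid. Intact-protein LC-MS (RapidFire/TOF or Q-Exactive) with charge-envelope deconvolution; % modification from modified vs unmodified peak intensities.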

| SMILES | Bind % |
| --- | --- |
| C=CC(=O)N1CC2(CCN(c3cc(OCCCN(C)C)c(F)c(-c4c(C)ccc5cnn(C)c45)c3C#N)CC2)C1 [Compound I-119, 6-(2-acryloyl-2,7-diazaspiro[3.5]nonan-7-yl)-2-(1,6-dimethyl-1H-indazol-7-yl)-4-(3-(dimethylamino)propoxy)-3-fluorobenzo-nitrile] | + (+ indicates binding activity greater than 0% and up to 50%) |
| C=CC(=O)N1CC2(CCN(c3cc(NCCN4CCCC4)c(F)c(-c4c(C)ccc5[nH]ncc45)c3C#N)CC2)C1 [Compound I-120, 6-(2-acryloyl-2,7-diazaspiro[3.5]nonan-7-yl)-3-fluoro-2-(5-methyl-1H-indazol-4-yl)-4-((2-(pyrrolidin-1-yl)ethyl)amino) benzonitrile] | + (+ indicates binding activity greater than 0% and up to 50%) |
| C=CC(=O)N1CC2(CCN(c3cc(N4CCCC4)c(F)c(-c4c(C)ccc5[nH]ncc45)c3C#N)CC2)C1 [Compound I-121, 6-(2-acryloyl-2,7-diazaspiro[3.5]nonan-7-yl)-3-fluoro-2-(5-methyl-1H-indazol-4-yl)-4-(pyrrolidin-1-yl)benzonitrile] | + (+ indicates binding activity greater than 0% and up to 50%) |
| C=CC(=O)N1CC2(CCN(c3cc(OCc4ccccn4)c(Cl)c(-c4c(C)ccc5[nH]ncc45)c3C#N)CC2)C1 [Compound I-122, 6-(2-acryloyl-2,7-diazaspiro[3.5]nonan-7-yl)-3-chloro-2-(5-methyl-1H-indazol-4-yl)-4-(pyridin-2-ylmethoxy) benzonitrile] | ++ (++ indicates binding activity from 50 to 75%) |
| C=CC(=O)N1CC2(CCN(c3cc(N4CC(N5CCOCC5)C4)c(F)c(-c4c(C)ccc5[nH]ncc45)c3C#N)CC2)C1 [Compound I-123, 6-(2-acryloyl-2,7-diazaspiro[3.5]nonan-7-yl)-3-fluoro-2-(5-methyl-1H-indazol-4-yl)-4-(3-morpholino-azetidin-1-yl)benzonitrile] | + (+ indicates binding activity greater than 0% and up to 50%) |
| C=CC(=O)N1CC2(CCN(c3cc(N4CCOCC4)c(Cl)c(-c4c(C)ccc5[nH]ncc45)c3C#N)CC2)C1 [Compound I-124, 6-(2-acryloyl-2,7-diazaspiro[3.5]nonan-7-yl)-3-chloro-2-(5-methyl-1H-indazol-4-yl)-4-morpholino-benzonitrile] | + (+ indicates binding activity greater than 0% and up to 50%) |
| C=CC(=O)N1CC2(CCN(c3cc(OCCCN(C)C)c(Cl)c(-c4c(C)ccc5[nH]ncc45)c3C#N)CC2)C1 [Compound I-125, 6-(2-acryloyl-2,7-diazaspiro[3.5]nonan-7-yl)-3-chloro-4-(3-(dimethylamino)propoxy)-2-(5-methyl-1H-indazol-4-yl)benzonitrile] | ++ (++ indicates binding activity from 50 to 75%) |
| C=CC(=O)N1CC2(CCN(c3cc(OC[C@H]4CCCN4C)c(F)c(-c4c(C)ccc5[nH]ncc45)c3C#N)CC2)C1 [Compound I-127, 6-(2-acryloyl-2,7-diazaspiro[3.5]nonan-7-yl)-3-fluoro-2-(5-methyl-1H-indazol-4-yl)-4-(((R)-1-methylpyrrolidin-2-yl)methoxy) benzonitrile] | ++ (++ indicates binding activity from 50 to 75%) |
| C=CC(=O)N1CC2(CCN(c3cc(OC[C@@H]4CCCN4C)c(F)c(-c4c(C)ccc5[nH]ncc45)c3C#N)CC2)C1 [Compound I-128, 6-(2-acryloyl-2,7-diazaspiro[3.5]nonan-7-yl)-3-fluoro-2-(5-methyl-1H-indazol-4-yl)-4-(((S)-1-methylpyrrolidin-2-yl)methoxy) benzonitrile] | + (+ indicates binding activity greater than 0% and up to 50%) |
| C=CC(=O)N1CC2(CCN(c3ccc(OCC(F)(F)F)c(-c4c(C)ccc5[nH]ncc45)c3C#N)CC2)C1 [Compound I-130, 6-(2-acryloyl-2,7-diazaspiro[3.5]nonan-7-yl)-2-(5-methyl-1H-indazol-4-yl)-3-(2,2,2-trifluoroethoxy) benzonitrile] | + (+ indicates binding activity greater than 0% and up to 50%) |
| C=CC(=O)N1CC2(CCN(c3cc(N(C)CCN4CCCC4)c(F)c(-c4c(C)ccc5[nH]ncc45)c3C#N)CC2)C1 [Compound I-131, 6-(2-acryloyl-2,7-diazaspiro[3.5]nonan-7-yl)-3-fluoro-4-(methyl(2-(pyrrolidin-1-yl)ethyl)amino)-2-(5-methyl-1H-indazol-4-yl)benzonitrile] | + (+ indicates binding activity greater than 0% and up to 50%) |
| C=CC(=O)N1CC2(CCN(c3cc(OC)c(Cl)c(-c4c(C)ccc5[nH]ncc45)c3C#N)CC2)C1 [Compound I-132, 6-(2-acryloyl-2,7-diazaspiro[3.5]nonan-7-yl)-3-chloro-4-methoxy-2-(5-methyl-1H-indazol-4-yl)benzonitrile] | + (+ indicates binding activity greater than 0% and up to 50%) |
| C=CC(=O)N1CC2(CCN(c3cc(NCCc4ccccn4)c(F)c(-c4c(C)ccc5[nH]ncc45)c3C#N)CC2)C1 [Compound I-133, 6-(2-acryloyl-2,7-diazaspiro[3.5]nonan-7-yl)-3-fluoro-2-(5-methyl-1H-indazol-4-yl)-4-((2-(pyridin-2-yl)ethyl)amino) benzonitrile] | + (+ indicates binding activity greater than 0% and up to 50%) |
| C=CC(=O)N1CC2(CCN(c3cc(OCCN4CCCC4)c(F)c(-c4c(C)ccc5[nH]ncc45)c3C#N)CC2)C1 [Compound I-135, 6-(2-acryloyl-2,7-diazaspiro[3.5]nonan-7-yl)-3-fluoro-2-(5-methyl-1H-indazol-4-yl)-4-(2-(pyrrolidin-1-yl)ethoxy) benzonitrile] | + (+ indicates binding activity greater than 0% and up to 50%) |
| C=CC(=O)N1CC2(CCN(c3cccc(-c4c(C)ccc5[nH]ncc45)c3C#N)C2)C1CC (stereo not drawn) [Compound I-137, 2-(2-acryloyl-1-ethyl-2,6-diazaspiro[3.4]octan-6-yl)-6-(5-methyl-1H-indazol-4-yl)benzonitrile] | + (+ indicates binding activity greater than 0% and up to 50%) |
| C=CC(=O)N1CC2(CCN(c3cc(OCc4ccccn4)cc(-c4c(C)ccc5[nH]ncc45)c3C#N)C2)C1CC (stereo not drawn) [Compound I-138] | ++ (++ indicates binding activity from 50 to 75%) |
| C=CC(=O)N1CC2(CCN(c3cccc(-c4c(C)ccc5[nH]ncc45)c3C#N)C2)C1C(C)C (stereo not drawn) [Compound I-139, 2-(2-acryloyl-1-isopropyl-2,6-diazaspiro[3.4]octan-6-yl)-6-(5-methyl-1H-indazol-4-yl)benzonitrile] | + (+ indicates binding activity greater than 0% and up to 50%) |

same assay, conditions: tested at a concentration of 8 μM

| SMILES | Bind % |
| --- | --- |
| C=CC(=O)N1CC2(CCN(c3cccc(-c4c(C)ccc5[nH]ncc45)c3C#N)C2)C1C (stereo not drawn) [Compound I-126, 2-(2-acryloyl-1-methyl-2,6-diazaspiro[3.4]octan-6-yl)-6-(5-methyl-1H-indazol-4-yl)benzonitrile] | + (+ indicates binding activity greater than 0% and up to 50%) |
| C=CC(=O)N1CC2(CCN(c3cc(OCc4ccccn4)cc(-c4c(C)ccc5[nH]ncc45)c3C#N)C2)C1C (stereo not drawn) [Compound I-129, 2-(2-acryloyl-1-methyl-2,6-diazaspiro[3.4]octan-6-yl)-6-(5-methyl-1H-indazol-4-yl)-4-(pyridin-2-ylmethoxy) benzonitrile] | ++ (++ indicates binding activity from 50 to 75%) |
| C=CC(=O)N1CC2(CCN(c3ccc(F)c(-c4c(C)ccc5[nH]ncc45)c3C#N)C2)C1C (stereo not drawn) [Compound I-134, 6-(2-acryloyl-1-methyl-2,6-diazaspiro[3.4]octan-6-yl)-3-fluoro-2-(5-methyl-1H-indazol-4-yl)benzonitrile] | ++ (++ indicates binding activity from 50 to 75%) |
| C=CC(=O)N1CC2(CCN(c3cc(N4CCC(CN(C)C)CC4)c(F)c(-c4c(C)ccc5[nH]ncc45)c3C#N)CC2)C1 [Compound I-136, 6-(2-acryloyl-2,7-diazaspiro[3.5]nonan-7-yl)-4-(4-((dimethylamino)methyl)piperidin-1-yl)-3-fluoro-2-(5-methyl-1H-indazol-4-yl)benzonitrile] | + (+ indicates binding activity greater than 0% and up to 50%) |
